Test results taken from patent publication US20200345721A1, “Device for Deterring Abuse of Drugs” (EIGHTY EIGHT PHARMA, INC., priority 2019, published 2020).
Where a name gives a salt, the structure may show the parent alone. Read-outs that look alike come from different tables or passages of the source.

How the values were obtained:
[1] = Naltrexone HCl solubility, HPLC analysis; format: physicochemical; details: for solubility at 2 h / solubility at 1 h / solubility: thermodynamic from solid; for solubility at 1 h: sample 50 mg/mL
Description: To determine the solubility of Naltrexone HCl in solutions of 100% water or 60%/40% Ethanol/water, solutions of Naltrexone HCl were prepared at 50 mg/mL and 100 mg/mL in 100% water or 60%/40% ethanol/water for a total of 4 solutions. Solutions were vortex mixed, placed on a mechanical shaker and evaluated every 30 minutes for complete dissolution. Once fully dissolved, each solution was prepared for HPLC by diluting to 2 mg/mL in methanol and 0.1M phosphoric acid and analyzed on an HPLC.
The 50 mg/mL samples were fully dissolved into solution following 1 hour on the mechanical shaker with periodic vortex mixing. The 100 mg/mL solution prepared in the ethanol/water mixture was dissolved after a total of 2 hours shaking with periodic vertex mixing. The 100 mg/mL solution in 100% water was also sonicated. HPLC results are included in Table 3.

[2] = system: pharmacologic effects of 25 mg of intravenously administered heroin; details: cited from earlier work
[3] = system: humans; details: 800 mg daily for up to one week, human subjects; cited from earlier work
[4] = system: rat; details: cited from earlier work
[5] = system: animals; details: cited from earlier work
[6] = system: guinea pig; details: cited from earlier work
[7] = Solubility of naltrexone in ethanol/water; format: physicochemical
Description: A solution of naltrexone in 60% Ethanol/40% water at a concentration of 19 mg/ml was achieved without precipitation.
To determine a formulation which will deposit 3.6-9.6 mg of Naltrexone onto small IR tablets within a specified period of time, the ratio of ethanol to water was adjusted to increase solubility of Naltrexone.

[8] = Naltrexone recovered from IR and ER tablets, 23 mg/mL solutions (Example 4); details: 23 mg/ml ethanol/water solution, lower proportion of ethanol
Description: To compare formulations of Naltrexone and Naltrexone HCl which will deposit 3.6-9.6 mg of Naltrexone onto small IR tablets, small extended release (“ER”) tablets and large ER tablets, Naltrexone (23 mg/ml) and Naltrexone HCl (23 mg/ml) solutions were used. Six (6) small IR tablets (Homeopathy Blank 5 Grain, Lactose, Lot #: 07090710H3, Exp. 08/23), six (6) small ER Tablets (Mucus Relief Guaifenesin Extended-Release Tablets, 600 mg, Lot #: F07210, Exp. 04/20), and three (3) large ER tablets (Mucus Relief Guaifenesin Extended-Release Tablets, 1200 mg, Lot #: F08474, Exp. 05/20) were tested. Tablets were placed in test tubes or kept in their blister packaging and spiked with a 23 mg/mL spiking solution containing either Naltrexone Base or Naltrexone HCl. Small tablets (IR and ER) were divided into two groups of 3 and coated with a solution prepared with either Naltrexone base (23 mg/ml) or Naltrexone HCl (23 mg/ml). Large ER tablets were spiked with Naltrexone base solution only while remaining in their original blister packaging. Each tablet remained in solution for a period of 2, 6 or 10 minutes before removal and testing form Naltrexone. The large ER tablets spiked with Naltrexone NCl were not completed due to time limitations

O=C1CC[C@@]2(O)[C@H]3Cc4ccc(O)c5c4[C@@]2(CCN3CC2CC2)[C@H]1O5 [Naltrexone HCl, naltrexone hydrochloride]
time on mechanical shaker until fully dissolved ([1]; 50 mg/mL samples, periodic vortex mixing): 1 h | total shaking time until dissolved ([1]; 100 mg/mL in ethanol/water mixture): 2 h | solubility at 2 h ([1]; 60%/40% ethanol/water, aqueous with cosolvent or surfactant or cyclodextrin, 60%/40% ethanol/water, read-out: solubility (soluble up to)): ≥ 100 mg/mL | solubility at 1 h ([1]; 60:40 ethanol:water, aqueous with cosolvent or surfactant or cyclodextrin, 60:40 Ethanol:water, HPLC, read-out: Solubilized Concentration): 48.6 mg/mL | solubility at 2 h ([1]; 60:40 ethanol:water, aqueous with cosolvent or surfactant or cyclodextrin, sample 100 mg/mL, 60:40 Ethanol:water, HPLC, read-out: Solubilized Concentration): 96.1 mg/mL | solubility ([1]; 100% water, water, 100% water, read-out: solubility (soluble up to)): ≥ 100 mg/mL | solubility at 1 h ([1]; 100% water, water, 100% water, HPLC, read-out: Solubilized Concentration): 49 mg/mL | solubility ([1]; 100% water, water, sample 100 mg/mL, 100% water, HPLC, read-out: Solubilized Concentration): 96.9 mg/mL | duration of blockade of pharmacologic effects of heroin ([2]; 50 mg naltrexone hydrochloride vs 25 mg intravenous heroin): ≤ 24 hours | duration of blockade ([2]; doubling the dose of naltrexone hydrochloride): 48 h | duration of blockade ([2]; tripling the dose of naltrexone hydrochloride): about 72 hours | evidence of toxicity [3]: no evidence of toxicity | oral LD50 [4]: 1,450 mg/kg | signs produced by high doses ([5]; high doses, generally >1,000 mg/kg): salivation, depression/reduced activity, tremors, and convulsions | oral LD50 [6]: 1,490 mg/kg

O=C1CC[C@@]2(O)[C@H]3Cc4ccc(O)c5c4[C@@]2(CCN3CC2CC2)[C@H]1O5 [Naltrexone Base, naltrexone]
concentration achieved without precipitation ([7]; 60% Ethanol/40% water): 19000 µg/mL | final concentration of solution, titrated with water until precipitates formed ([7]; 75:25 ethanol to water): 37.5 mg/mL | cause of mortalities ([5]; high-dose administration, animals): tonic-clonic convulsions and/or respiratory failure | stability of the solution [8]: comes out of solution over time
